Marks after values point to notes of the source that are not given here.

From patent US20100081679A1, “DIAMINOPYRIMIDINES AS FUNGICIDES” (Bayer CropScience AG, priority 2007, published 2010) come the findings set out here.

This data set in a line: logP determination via retention times, calibrated with unbranched alkan-2-ones. Type of data set: physicochemical.
Where [1] appears, read: HPLC on reversed-phase C 18, EEC Directive 79/831 Annex V.A8, method *: 40° C., 0.1% aqueous formic acid and acetonitrile, linear gradient 10% to 95% acetonitrile.
The mark [2] stands for this setting: method *: HPLC, reversed-phase C 18, 40° C., mobile phase 0.1% aqueous formic acid and acetonitrile, linear gradient from 10% to 95% acetonitrile.
Where [3] appears, read: method *: HPLC reversed-phase C18, 40° C., 0.1% aqueous formic acid and acetonitrile, linear gradient 10% to 95% acetonitrile.
Setting [4] is: HPLC on reversed-phase C18 column (EEC Directive 79/831 Annex V.A8), method *: 40° C., 0.1% aqueous formic acid and acetonitrile, linear gradient 10% to 95% acetonitrile.
Setting [5] is: HPLC on reversed-phase C 18, method **: 43° C., 0.1% aqueous phosphoric acid and acetonitrile, linear gradient 10% to 95% acetonitrile.
Setting [6] is: HPLC on reversed-phase C18, method *: 40° C., 0.1% aqueous formic acid and acetonitrile, linear gradient 10% to 95% acetonitrile.
Setting [7] is: method *: HPLC reversed-phase C 18, temperature 40° C., mobile phase 0.1% aqueous formic acid and acetonitrile, linear gradient 10% to 95% acetonitrile.
The mark [8] stands for this setting: method **: HPLC reversed-phase C 18, 43° C., 0.1% aqueous phosphoric acid and acetonitrile, linear gradient 10% to 95% acetonitrile.
[9] abbreviates: HPLC reversed-phase C 18, EEC Directive 79/831 Annex V.A8, method **: 43° C., 0.1% aqueous phosphoric acid and acetonitrile, linear gradient 10% to 95% acetonitrile.
Where [10] appears, read: HPLC reversed-phase C 18, EEC Directive 79/831 Annex V.A8, method *: 40° C., 0.1% aqueous formic acid and acetonitrile, linear gradient 10% to 95% acetonitrile.
[11] abbreviates: HPLC on reversed-phase C18, method *: 40° C., mobile phase 0.1% aqueous formic acid and acetonitrile, linear gradient 10% to 95% acetonitrile.

Regarding `COc1cc(Nc2ncc(Cl)c(NCC3CC3)n2)ccc1NC(C)=O` [compound 503], under setting [1], the logP is on record as 1.53*. Regarding `CSc1cccc(Nc2ncc(Cl)c(NC3CC3(C)C)n2)c1` (stereo not shown) [compound 1029], the logP runs as follows: (method **: HPLC, reversed-phase C 18, 43° C., mobile phase 0.1% aqueous phosphoric acid and acetonitrile, linear gradient from 10% to 95% acetonitrile) 3.07**; under setting [2], 3.07*;.

On to `O=C(c1ccc(Nc2ncc(Cl)c(NC3CC3)n2)cc1)C(F)(F)F` [Example 73], for which, under setting [3], the logP was 3.62*.

Turning to `CSc1cccc(Nc2ncc(C(F)(F)F)c(NCC3CC3)n2)c1` [compound 208], the logP under setting [4] was 3.41*. Regarding `CC(=O)c1cccc(Nc2ncc(C(F)(F)F)c(NCC3CC3)n2)c1` [compound 211], the logP under setting [4] is recorded as 2.77*. In the case of `COC(=O)Nc1ccc(Nc2ncc(Cl)c(N(C)CC3CC3)n2)cc1` [compound 970], the logP under setting [5] is 1.99**. With `Clc1cnc(Nc2cccc(-n3ccnc3)c2)nc1NC1CC1` [compound 720], the logP under setting [6] is on record as 0.91*. For `Cc1cccc(Nc2ncc(Cl)c(NCC3CC3)n2)c1` [compound 1051], the logP under setting [2] is reported as 2.09*.

As to `CC1COC(=O)N1c1cccc(Nc2ncc(Cl)c(NC3CC3)n2)c1` (stereo not shown) [compound 267], the logP under setting [4] was 1.57*. Turning to `O=C(Nc1cccc(Nc2ncc(Cl)c(NCC3CC3)n2)c1)c1ccccc1` [compound 557], under setting [1], the logP is 2.21*.

Consider `C=CC(=O)Nc1cccc(Nc2ncc(Br)c(NC3CC3)n2)c1` [compound 754], for which the logP under setting [6] was 1.54*. `COc1cc(Nc2ncc(C(F)(F)F)c(NC3CC3)n2)ccc1NC(C)=O` [compound 639]: the logP under setting [7] is reported as 1.85*. As to `O=C(Nc1ccccc1)Nc1cccc(Nc2ncc(Cl)c(NC3CC3)n2)c1` [compound 717], the logP under setting [6] is 1.93*. As to `CN(C)S(=O)(=O)c1cccc(Nc2ncc(Cl)c(NCC3CC3)n2)c1` [compound 49], the logP under setting [8] is listed as 2.18**.

On to `O=C(c1cccc(Nc2ncc(Cl)c(NC3CC3)n2)c1)N1CCCCC1` [compound 770], for which the logP under setting [6] is listed as 1.94*. As to `Cc1nc(Nc2ccc(N3CCOC3=O)cc2)nc(NC2CC2)c1Cl` [compound 840], under setting [9], the logP is 1.31**.

With `O=C1NC(=O)C(c2ccc(Nc3ncc(Cl)c(NC4CC4)n3)cc2)N1` (stereo not shown) [compound 176], the logP under setting [4] is listed as 0.61*. As for `O=C1COCCN1c1cccc(Nc2ncc(Br)c(NC3CC3)n2)c1` [compound 789], under setting [10], the logP is recorded as 1.24*.

Consider `O=C1CCCN1c1ccc(Nc2ncc(Br)c(NC3CC3)n2)cc1` [Example 97], for which the logP under setting [3] is recorded as 1.49*. As for `CC(C)(CF)C(=O)Nc1cccc(Nc2ncc(F)c(NC3CC3)n2)c1` [compound 600], the logP under setting [7] was 1.55*.

On to `CC(=O)CCc1cccc(Nc2ncc(Br)c(NC3CC3)n2)c1` [compound 967], for which the logP under setting [6] was 1.83*. Turning to `CC(=O)Cc1cccc(Nc2ncc(Br)c(NC3CC3)n2)c1` [compound 782], the logP under setting [10] is 1.64*. As for `O=C(O)c1ccc(Nc2ncc(Cl)c(NC3CC3)n2)cc1` [Example 35], the logP under setting [8] was 1.55**.

In the case of `Clc1cc(Cl)cc(Nc2ncc(Br)c(NC3CC3)n2)c1` [compound 749], under setting [6], the logP was 4.43*. Turning to `Clc1cnc(Nc2ccc(-c3nccs3)cc2)nc1NC1CC1` [compound 253], under setting [4], the logP is given as 2.32*. As for `CC(=O)Nc1cc(Nc2ncc(Br)c(NCC3CC3)n2)ccc1C` [compound 468], under setting [1], the logP was 1.51*. As to `Oc1ccc(Nc2ncc(Cl)c(NC3CC3)n2)cc1C1CCCC1` [compound 187], the logP under setting [4] is listed as 1.86*. For `Clc1cnc(Nc2ccccc2-c2ccccc2)nc1NC1CC1` [compound 900], under setting [6], the logP is 2.46*. Consider `CO/N=C(\C)Cc1cccc(Nc2ncc(Cl)c(NC3CC3)n2)c1` [compound 854], for which, under setting [10], the logP is 2.2*.

Turning to `O=C(NCc1ccc(Nc2ncc(Cl)c(NC3CC3)n2)cc1)OCc1ccccc1` [Example 95], the logP under setting [3] is given as 2.2*. Turning to `CC(C)c1ccc(Nc2ncc(Cl)c(NC3CC3)n2)cc1` [compound 729], the logP under setting [6] was 2.54*. `CC(C)(C)C(=O)Cc1ccc(Nc2ncc(C(F)(F)F)c(NC3CC3)n2)cc1` [compound 655]: under setting [7], the logP is 3.33*. Take `CC(C)(C)C(=O)Nc1cccc(Nc2ncc(Cl)c(NCC3CC3)n2)c1` [compound 312]: under setting [11], the logP was 2.14*. Consider `FC(F)(F)c1ccc(Nc2ncc(Cl)c(NCC3CC3)n2)cc1` [compound 684], for which the logP under setting [6] is reported as 3.33*. The same measure, in the same setting: to `Clc1cnc(Nc2ccccc2Sc2ccccc2)nc1NC1CC1` [compound 884] belongs 3.94*; to `Clc1ccc(Nc2ncc(Cl)c(NC3CC3)n2)cc1Br` [compound 942], 3.55*. Take `CCN(C(C)=O)c1ccc(Nc2ncc(Cl)c(NCC3CC3)n2)cc1` [compound 506]: the logP under setting [1] is listed as 1.73*.

Regarding `N#Cc1cccc(Nc2ncc(Br)c(NC3CC3)n2)c1` [compound 741], under setting [6], the logP was 2.26*. In the case of `COc1cc(Nc2ncc(Cl)c(NC3(c4ccccc4Cl)CC3)n2)cc(OC)c1OC` [compound 320], under setting [11], the logP is 3.06*. Take `O=S(=O)(c1cccc(Nc2ncc(Cl)c(NC3CC3)n2)c1)N1CCOCC1` [Example 19]: the logP under setting [8] is 2.13**. In the case of `O=C(NCC(F)(F)F)c1cccc(Nc2ncc(Br)c(NC3CC3)n2)c1` [compound 622], the logP under setting [7] is listed as 1.91*.

For the compound `CC(C)Oc1cccc(Nc2ncc(Cl)c(NC3CC3)n2)c1` [compound 195], the logP under setting [4] is 2.45*. Regarding `O=C1OCCN1c1cccc(Nc2ncc(Br)c(NCC3CC3)n2)c1` [compound 862], under setting [10], the logP was 1.68*. In the case of `COC(=O)Nc1cccc(Nc2ncc(Cl)c(NC3CC3)n2)c1` [compound 193], under setting [4], the logP is reported as 1.44*. Turning to `CC(=O)Nc1ccc(Nc2ncc(Br)c(NC3CC3)n2)cc1` [compound 348], the logP under setting [11] is 1.31*.

Turning to `CC(C)(C)C(=O)Nc1ccc(Nc2ncc(C(F)(F)F)c(NCC3CC3)n2)cc1` [compound 201], the logP under setting [4] is reported as 2.6*. Take `CC(=O)N(C)c1ccc(Nc2ncc(C#N)c(NC3CC3)n2)cc1` [compound 158]: the logP under setting [6] is 1.69*. Still for that read-out and setting: to `Cc1cc(F)ccc1Nc1ncc(Cl)c(NC2CC2)n1` [compound 945] belongs 1.68*.

Turning to `CCc1ccc(Nc2ncc(Cl)c(NC3CC3)n2)cc1` [compound 951], under setting [6], the logP is listed as 2.13*. Consider `CO/N=C/c1ccc(Nc2ncc(Br)c(NC3CC3)n2)cc1` [compound 338], for which, under setting [11], the logP is listed as 2.55*. Turning to `COCc1cccc(Nc2nc(C)c(Cl)c(NC3CC3)n2)c1` [compound 839], under setting [9], the logP is 1.67**.

Turning to `CCC(C)Oc1cc(Nc2ncc(Cl)c(NC3CC3)n2)ccc1C` (racemic) [compound 955], the logP under setting [6] is listed as 2.99*. As for `CCCOc1cccc(Nc2ncc(Br)c(NC3CC3)n2)c1` [compound 336], the logP under setting [11] is 2.83*. For the compound `CSc1cccc(Nc2ncc(Cl)c(NCC3CC3)n2)c1` [compound 119], under setting [6], the logP is 2.27*. Regarding `CC(=O)c1ccc(Nc2ncc(Cl)c(NC3CC3)n2)cc1.Cl` [Example 45], the logP under setting [8] is given as 1.99**. As for `CC(C)C(=O)Nc1ccc(Nc2ncc(C(F)(F)F)c(NC3CC3)n2)cc1` [compound 663], under setting [6], the logP was 2.11*. For `CC(=O)Nc1ccc(Nc2ncc(C(F)(F)F)c(NC3CC3)n2)cc1` [compound 956], the logP under setting [5] is 1.64**. Consider `Clc1ccc(Nc2ncc(Cl)c(NC3CC3)n2)cc1Cl` [compound 941], for which the logP under setting [6] is 3.46*. On to `COc1cc(Nc2ncc(C(F)(F)F)c(NC3CC3)n2)ccc1Cl` [compound 700], for which the logP under setting [6] is reported as 3.59*.

Turning to `CSc1cccc(Nc2ncc(Cl)c(N(C)CC3CC3)n2)c1` [compound 968], the logP under setting [5] is recorded as 3.6**. Consider `Cc1cnc(Nc2cccc(N3CCCC3=O)c2)nc1NC1CC1` [compound 567], for which the logP under setting [7] is recorded as 1.14*. On to `NS(=O)(=O)c1cc(Nc2ncc(Cl)c(NC3CC3)n2)cc(C(F)(F)F)c1` [compound 17], for which, under setting [8], the logP is 2.48**. Consider `Cc1cc(C)cc(Nc2ncc(Cl)c(NC3CC3)n2)c1` [compound 274], for which, under setting [11], the logP is on record as 2.13*. On the same count and under the same terms, to `CC(C)(C)OC(=O)NCc1ccc(Nc2ncc(Br)c(NC3CC3)n2)cc1` [compound 329] belongs 2.02*.

Regarding `CCN(C(C)=O)c1ccc(Nc2ncc(Br)c(NC3CC3)n2)cc1` [compound 380], under setting [3], the logP is on record as 1.73*. Turning to `COc1cc(Nc2ncc(Br)c(NC3CC3)n2)cc(OC)c1` [compound 563], the logP under setting [1] is 2.15*. Regarding `CCc1cccc(Nc2ncc(Cl)c(N(C)C3CC3)n2)c1` [compound 1058], the logP under setting [2] is reported as 3.65*. Regarding `O=C1NC(=O)C(c2ccc(Nc3ncc(C(F)(F)F)c(NC4CC4)n3)cc2)N1` (stereo not shown) [compound 658], the logP under setting [7] is 1.58*. As to `CNC(=O)c1cccc(Nc2ncc(C#N)c(NC3CC3)n2)c1` [compound 608], under setting [7], the logP is given as 1.64*. In the case of `CCC(CC)c1ccc(Nc2ncc(Cl)c(NC3CC3)n2)cc1` [compound 1033], under setting [2], the logP is 3.41*. As to `O=C1CCCN1c1ccc(Nc2ncc(Br)c(NCC3CC3)n2)cc1` [compound 457], the logP by setting is: under setting [8], 1.59**; under setting [3], 1.66*;.
